Reference: PubChem BioAssay AID1436 (PCMD, 2008)
Results filed as inconclusive are left out. The source made the active and inactive calls. How the calls were made is not given here.

Target: DNA repair protein RAD51 homolog 1 (Homo sapiens) (UniProt Q06609)
Experiment: inhibitors of RAD51 DNA binding, dose response, biochemical, fluorescence (AID 1436)

DNA repair protein RAD51 homolog 1 (Homo sapiens), sequence (Q06609 whole entry, looked up): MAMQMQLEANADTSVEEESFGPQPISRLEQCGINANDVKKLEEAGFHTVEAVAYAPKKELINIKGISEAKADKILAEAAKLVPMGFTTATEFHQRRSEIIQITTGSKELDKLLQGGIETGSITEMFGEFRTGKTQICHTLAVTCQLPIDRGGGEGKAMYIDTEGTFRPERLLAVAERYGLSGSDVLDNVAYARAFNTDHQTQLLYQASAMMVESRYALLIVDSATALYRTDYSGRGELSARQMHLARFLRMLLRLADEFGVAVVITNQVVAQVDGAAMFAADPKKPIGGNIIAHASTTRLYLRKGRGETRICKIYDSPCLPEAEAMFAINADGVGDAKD

IC50	Structure (SMILES)
> 85 µM (inactive)	COc1cccc2c1C(=O)c1c(O)c3c(c(O)c1C2=O)C[C@@](O)(C(=O)CO)C[C@@H]3O[C@H]1C[C@H](N)[C@@H](O)[C@H](C)O1
> 42.5 µM (inactive)	COC(=O)c1ccc(=O)c2nc3/c(=C/O)c(O)cc(=O)c3[nH]c12
